Structures are written as SMILES. Activity calls are given as the source filed them. The calls are words filed in the database; no cut-off is given here.

Data set [1] concerns 4T1. Put plainly: Antitumor activity against mouse 4T1 cells implanted in BALB/C mouse assessed as downregulation of GREB1 gene expression at 50 mg/kg,ip administrated daily for 14 days by RT-qPCR analysis. As to conditions: time 14.0 day. The class given is functional, organism-based. On the technique in general: Quantitative PCR measures a nucleic acid by following its amplification.

Data set [2] in a line: Toxicity in BALB/C mouse xenografted with human MDA-MB-231 cells assessed as change in spleen morphology at 50 mg/kg,ip administrated daily for 11 days. The class given is organism-based. As to conditions: in vivo, 264 h, time 11 day. Background: A xenograft is tissue or cells of one species grown in another, often human tumour cells in immunodeficient mice.
The test system of data set [3] is MCF7. Put plainly: Synergistic antiproliferative activity against human MCF7 cells assessed as downregulation of FOXC1 gene expression at 2.5 uM incubated for 6 hrs in presence of fulvestrant by RT-qPCR analysis. The class given is functional, cell-based.
Data set [4] relates to MCF7. The data set is described as follows: Synergistic antiproliferative activity against human MCF7 cells assessed as inhibition of cell growth at 2.5 uM incubated for 7 days in presence of fulvestrant by celltiter 96 aqueous one solution cell proliferation assay. Type of data set: functional, cell-based. As to conditions: time 7.0 day.
The test system of data set [5] is MCF7. The data set is described as follows: Antitumor activity against human MCF7 cells xenografted in BALB/C mouse assessed as downregulation of N-Myc gene expression at 25 mg/kg,ip administrated every other day for 29 days by RT-qPCR analysis. The class given is functional, organism-based. As to conditions: time 29.0 day.
The subject of data set [6] is MCF7. Put plainly: Antitumor activity against human MCF7 cells xenografted in BALB/C mouse assessed as downregulation of GREB1 gene expression at 50 mg/kg,ip administrated every other day for 29 days by RT-qPCR analysis. Type of data set: functional, organism-based. As to conditions: time 29.0 day.
In data set [7] the test system is MCF7. The data set is described as follows: Synergistic antiproliferative activity against human MCF7 cells assessed as downregulation of CCND1 gene expression at 2.5 uM incubated for 6 hrs in presence of fulvestrant by RT-qPCR analysis. The class given is functional, cell-based.

In the case of `Cc1ccc(-c2nc(N3CCN(CCN(C)C)CC3)ncc2-c2ccoc2)cc1.Cl.Cl`, the result in data set [1], in data set [3], in data set [4], in data set [5], in data set [6] and in data set [7] was Active. The Activity result in data set [2] is on record as “Non-Toxic”.
